Test results taken from ChEMBL document CHEMBL3044888, “Fungicidal activity of indole derivatives against some plant pathogenic fungi” (J Pestic Sci, 2010).
In brackets after ≈: the same amount, converted by molar mass.

Assays:
Macrophomina phaseolina [1] = experiment: In vivo effect on peroxidase activity in Macrophomina phaseoli assessed as RNA content at 0.5 times of IC50 concentration (reference value: 16.1 +/- 0.4 mg/l); assay type: functional
Fusarium culmorum [2] = experiment: Inhibition of peroxidase activity in Fusarium culmorum at 0.25 times of IC50 concentration
[3] = tested on: Globisporangium debaryanum; experiment: Fungicidal activity against Pythium debaryanum assessed as inhibition of hyphal growth by radial growth test; assay type: functional, organism-based
Rhizoctonia solani [4] = experiment: In vivo effect on peroxidase activity in Rhizoctonia solani assessed as DNA content at 0.5 times of IC50 concentration (reference value: 24 +/- 0.7 mg/l); assay type: functional
Rhizoctonia solani [5] = experiment: In vivo effect on peroxidase activity in Rhizoctonia solani assessed as non-reducing sugar content per gram of dry hyphal at 0.1 times of IC50 concentration (reference value: 2.8 +/- 0.2 mg/g of dry weight); assay type: functional
[6] = tested on: Globisporangium debaryanum; experiment: In vivo effect on peroxidase activity in Pythium debaryanum assessed as RNA content at 0.25 times of IC50 concentration (reference value: 32.2 +/- 0.7 mg/l); assay type: functional
Macrophomina phaseolina [7] = experiment: In vivo effect on peroxidase activity in Macrophomina phaseoli assessed as non-reducing sugar content per gram of dry hyphal at 1 times of IC50 concentration (reference value: 12 +/- 0.8 mg/g of dry weight); assay type: functional
Macrophomina phaseolina [8] = experiment: In vivo effect on peroxidase activity in Macrophomina phaseoli assessed as reduced sugar content per gram of dry hyphal at 1 times of IC50 concentration (reference value: 7.3 +/- 0.5 mg/g of dry weight); assay type: functional
Rhizoctonia solani [9] = experiment: In vivo effect on peroxidase activity in Rhizoctonia solani assessed as total soluble sugar content per gram of dry hyphal at 0.1 times of IC50 concentration (reference value: 20.1 +/- 0.8 mg/g of dry weight); assay type: functional
Rhizoctonia solani [10] = experiment: In vivo effect on peroxidase activity in Rhizoctonia solani assessed as RNA content at 2 times of IC50 concentration (reference value: 25 +/- 0.7 mg/l); assay type: functional
Macrophomina phaseolina [11] = experiment: In vivo effect on peroxidase activity in Macrophomina phaseoli assessed as non-reducing sugar content per gram of dry hyphal at 0.1 times of IC50 concentration (reference value: 12 +/- 0.8 mg/g of dry weight); assay type: functional
Macrophomina phaseolina [12] = experiment: In vivo effect on peroxidase activity in Macrophomina phaseoli assessed as RNA content at 0.25 times of IC50 concentration (reference value: 16.1 +/- 0.4 mg/l); assay type: functional
Fusarium culmorum [13] = experiment: In vivo effect on peroxidase activity in Fusarium culmorum assessed as RNA content at 2 times of IC50 concentration (reference value: 51.5 +/- 1.5 mg/l); assay type: functional
Macrophomina phaseolina [14] = experiment: In vivo effect on peroxidase activity in Macrophomina phaseoli assessed as reduced sugar content per gram of dry hyphal at 0.5 times of IC50 concentration (reference value: 7.3 +/- 0.5 mg/g of dry weight); assay type: functional
Rhizoctonia solani [15] = experiment: In vivo effect on peroxidase activity in Rhizoctonia solani assessed as DNA content at 2 times of IC50 concentration (reference value: 24 +/- 0.7 mg/l); assay type: functional
Fusarium culmorum [16] = experiment: Inhibition of peroxidase activity in Fusarium culmorum at 0.5 times of IC50 concentration
Macrophomina phaseolina [17] = experiment: In vivo effect on peroxidase activity in Macrophomina phaseoli assessed as total soluble sugar content per gram of dry hyphal at 0.5 times of IC50 concentration (reference value: 19.3 +/- 0.7 mg/g of dry weight); assay type: functional
Fusarium culmorum [18] = experiment: Inhibition of peroxidase activity in Fusarium culmorum at 0.1 times of IC50 concentration
[19] = tested on: Globisporangium debaryanum; experiment: In vivo effect on peroxidase activity in Pythium debaryanum assessed as RNA content at 2 times of IC50 concentration (reference value: 32.2 +/- 0.7 mg/l); assay type: functional
Rhizoctonia solani [20] = experiment: In vivo effect on peroxidase activity in Rhizoctonia solani assessed as RNA content at 0.25 times of IC50 concentration (reference value: 25 +/- 0.7 mg/l); assay type: functional
Rhizoctonia solani [21] = experiment: In vivo effect on peroxidase activity in Rhizoctonia solani assessed as RNA content at 0.1 times of IC50 concentration (reference value: 25 +/- 0.7 mg/l); assay type: functional
Rhizoctonia solani [22] = experiment: In vivo effect on peroxidase activity in Rhizoctonia solani assessed as DNA content at 1 times of IC50 concentration (reference value: 24 +/- 0.7 mg/l); assay type: functional
Macrophomina phaseolina [23] = experiment: In vivo effect on peroxidase activity in Macrophomina phaseoli assessed as DNA content at 0.25 times of IC50 concentration (reference value: 15.5 +/- 0.5 mg/l); assay type: functional
Rhizoctonia solani [24] = experiment: Fungicidal activity against Rhizoctonia solani assessed as inhibition of hyphal growth by radial growth test; assay type: functional, organism-based
Macrophomina phaseolina [25] = experiment: In vivo effect on peroxidase activity in Macrophomina phaseoli assessed as total soluble sugar content per gram of dry hyphal at 0.25 times of IC50 concentration (reference value: 19.3 +/- 0.7 mg/g of dry weight); assay type: functional
Fusarium culmorum [26] = experiment: In vivo effect on peroxidase activity in Fusarium culmorum assessed as DNA content at 0.5 times of IC50 concentration (reference value: 49.5 +/- 1.6 mg/l); assay type: functional
Rhizoctonia solani [27] = experiment: In vivo effect on peroxidase activity in Rhizoctonia solani assessed as total soluble sugar content per gram of dry hyphal at 0.5 times of IC50 concentration (reference value: 20.1 +/- 0.8 mg/g of dry weight); assay type: functional
Fusarium culmorum [28] = experiment: In vivo effect on peroxidase activity in Fusarium culmorum assessed as RNA content at 0.5 times of IC50 concentration (reference value: 51.5 +/- 1.5 mg/l); assay type: functional
Macrophomina phaseolina [29] = experiment: In vivo effect on peroxidase activity in Macrophomina phaseoli assessed as total soluble sugar content per gram of dry hyphal at 1 times of IC50 concentration (reference value: 19.3 +/- 0.7 mg/g of dry weight); assay type: functional
[30] = tested on: Globisporangium debaryanum; experiment: In vivo effect on peroxidase activity in Pythium debaryanum assessed as RNA content at 0.5 times of IC50 concentration (reference value: 32.2 +/- 0.7 mg/l); assay type: functional
Macrophomina phaseolina [31] = experiment: In vivo effect on peroxidase activity in Macrophomina phaseoli assessed as reduced sugar content per gram of dry hyphal at 0.1 times of IC50 concentration (reference value: 7.3 +/- 0.5 mg/g of dry weight); assay type: functional
[32] = tested on: Globisporangium debaryanum; experiment: Inhibition of peroxidase activity in Pythium debaryanum at 0.1 times of IC50 concentration
Rhizoctonia solani [33] = experiment: In vivo effect on peroxidase activity in Rhizoctonia solani assessed as reduced sugar content per gram of dry hyphal at 1 times of IC50 concentration (reference value: 17.3 +/- 1 mg/g of dry weight); assay type: functional
[34] = Inhibition of polyphenoloxidase activity in Macrophomina phaseoli; parameters: species or system Macrophomina phaseolina
Macrophomina phaseolina [35] = experiment: In vivo effect on peroxidase activity in Macrophomina phaseoli assessed as DNA content at 0.1 times of IC50 concentration (reference value: 15.5 +/- 0.5 mg/l); assay type: functional
Macrophomina phaseolina [36] = experiment: In vivo effect on peroxidase activity in Macrophomina phaseoli assessed as non-reducing sugar content per gram of dry hyphal at 0.25 times of IC50 concentration (reference value: 12 +/- 0.8 mg/g of dry weight); assay type: functional

SMILES | Activity (Macrophomina phaseolina [1]) [mg/L] | inhibition (Fusarium culmorum [2]) [%] | IC50 [3] [mg/L] | Activity (Rhizoctonia solani [4]) [mg/L] | Activity (Rhizoctonia solani [5]) [mg] | Activity [6] [mg/L] | Activity (Macrophomina phaseolina [7]) [mg] | Activity (Macrophomina phaseolina [8]) [mg] | Activity (Rhizoctonia solani [9]) [mg] | Activity (Rhizoctonia solani [10]) [mg/L] | Activity (Macrophomina phaseolina [11]) [mg] | Activity (Macrophomina phaseolina [12]) [mg/L] | Activity (Fusarium culmorum [13]) [mg/L] | Activity (Macrophomina phaseolina [14]) [mg] | Activity (Rhizoctonia solani [15]) [mg/L] | inhibition (Fusarium culmorum [16]) [%] | Activity (Macrophomina phaseolina [17]) [mg] | inhibition (Fusarium culmorum [18]) [%] | Activity [19] [mg/L] | Activity (Rhizoctonia solani [20]) [mg/L] | other results
CC(=O)n1c(-c2ccccc2)cc2ccccc21 | 8.6 | 23.7 | 15 (≈ 63.8 µM) | 26.6 | 2.5 | 26.8 | 8.9 | 25.8 | 12.2 | 36.1 | 1.7 | 10.6 | 20.3 | 20.8 | 34.7 | -7.9 | 31 | 85 | 22.5 | 26.2 | Activity (Rhizoctonia solani [21]): 23.6 mg/L; Activity (Rhizoctonia solani [22]): 31.4 mg/L; Activity (Macrophomina phaseolina [23]): 10.3 mg/L; IC50 (Rhizoctonia solani [24]): 37.5 mg/L (≈ 159 µM); Activity (Macrophomina phaseolina [25]): 22.2 mg; Activity (Fusarium culmorum [26]): 28 mg/L; Activity (Rhizoctonia solani [27]): 6 mg; Activity (Fusarium culmorum [28]): 29.2 mg/L; Activity (Macrophomina phaseolina [29]): 34.7 mg; Activity [30]: 11.8 mg/L; Activity (Macrophomina phaseolina [31]): 2.5 mg; inhibition [32]: 0%; Activity (Rhizoctonia solani [33]): 2.6 mg; IC50 [34]: 80.2 mg/L (≈ 341 µM); Activity (Macrophomina phaseolina [35]): 11.7 mg/L; Activity (Macrophomina phaseolina [36]): 7.4 mg
c1ccc(-c2cc3ccccc3[nH]2)cc1 [2-PHENYL-1H-INDOLE] | 8.3 | 26.2 | 17.7 (≈ 91.6 µM) | 29.6 | 14.1 | 19.8 | 1.3 | 5.8 | 58.4 | 28 | 2.4 | 7.2 | 24.7 | 2.9 | 27 | 53.8 | 4.3 | 7.5 | 24.2 | 30 | Activity (Rhizoctonia solani [21]): 29.4 mg/L; Activity (Rhizoctonia solani [22]): 30.9 mg/L; Activity (Macrophomina phaseolina [23]): 6.8 mg/L; IC50 (Rhizoctonia solani [24]): 34.6 mg/L (≈ 179 µM); Activity (Macrophomina phaseolina [25]): 9.7 mg; Activity (Fusarium culmorum [26]): 18 mg/L; Activity (Rhizoctonia solani [27]): 19.1 mg; Activity (Fusarium culmorum [28]): 18.7 mg/L; Activity (Macrophomina phaseolina [29]): 7.1 mg; Activity [30]: 11.4 mg/L; Activity (Macrophomina phaseolina [31]): 6.3 mg; inhibition [32]: 19.3%; Activity (Rhizoctonia solani [33]): 7.7 mg; IC50 [34]: 117.1 mg/L (≈ 606 µM); Activity (Macrophomina phaseolina [35]): 6.4 mg/L; Activity (Macrophomina phaseolina [36]): 5.1 mg
